Measured values taken from US20150031655A1, “COMBINATION OF LIVER X RECEPTOR MODULATOR AND ESTROGEN RECEPTOR MODULATOR FOR THE TREATMENT OF AGE-RELATED DISEASES” (UNIVERSITY OF NORTH DAKOTA, priority 2011, published 2015).

Legend:
LXRβ [1] = biological target: T1, LXRβ (Homo sapiens, UniProt P55055); experiment: Western blot of LXRβ levels in the nucleus, SH-SY5Y cells; assay type: cell-based; set-up: endogenous in cells; host or cells: SH-SY5Y human neuroblastoma cells; conditions: for LXRβ protein levels in the nucleus: 24 h, treatment alone vs control
T1 sequence (P55055 1-460): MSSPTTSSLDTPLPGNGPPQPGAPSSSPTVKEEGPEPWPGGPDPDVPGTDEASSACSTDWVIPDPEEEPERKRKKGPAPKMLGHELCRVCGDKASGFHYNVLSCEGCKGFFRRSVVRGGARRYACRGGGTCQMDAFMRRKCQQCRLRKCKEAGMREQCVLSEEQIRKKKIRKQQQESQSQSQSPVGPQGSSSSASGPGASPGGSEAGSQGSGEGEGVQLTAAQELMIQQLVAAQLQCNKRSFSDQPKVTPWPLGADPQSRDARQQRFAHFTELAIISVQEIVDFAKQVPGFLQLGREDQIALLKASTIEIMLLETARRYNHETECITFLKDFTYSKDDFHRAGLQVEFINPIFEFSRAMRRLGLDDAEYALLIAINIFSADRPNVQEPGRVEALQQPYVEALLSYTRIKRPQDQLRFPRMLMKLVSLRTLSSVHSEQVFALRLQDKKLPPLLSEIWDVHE
Method: (§1) Human neuroblastoma SH-SY5Y cells were grown in DMEM/F12 medium containing 10% fetal bovine serum (FBS) and 1% antibiotic/antimycotic mix. Cells were maintained at 37° C. in a saturated humidity atmosphere containing 95% air and 5% CO2.
Treated SH-SY5Y cells were washed with PBS and trypsinized to collect the cells and centrifuged at 5000 g. The pellet was washed again with PBS and homogenized in NE-PER tissue protein extraction reagent (Thermo Scientific, Rockford, Ill.) supplemented with protease and phosphatase inhibitors. Protein concentrations from the cytosolic and nuclear homogenates were determined with BCA protein assay.
Proteins (10 μg) were separated on SDS-PAGE gels, transferred to a polyvinylidene difluoride membrane (BioRad, Hercules, Calif.), and incubated with the following monoclonal antibodies: anti-TH mouse antibody (1:1000; Sigma Aldrich, Saint Louis, Mo.), anti-α-synuclein mouse antibody (1:500; Chemicon, Temecula, Calif.), anti-ERα rabbit antibody (1:500; Abcam, Cambridge, Mass.), anti-ERβ rabbit antibody (1:200; Upstate, Lake Placid, N.Y.), anti-LXRα rabbit antibody (1:500; Abcam, Cambridge, Mass.), anti-LXRβ mouse antibody (1:500; Abcam, Cambridge, Mass.).
β-actin and Lamin A were used as a gel loading control for cytosolic homogenates and nuclear homogenates respectively. The blots were developed with enhanced chemiluminescence (Immmun-star HRP chemiluminescent kit, Bio-Rad, Hercules, Calif.). Bands were visualized on a polyvinylidene difluoride membrane and analyzed by LabWorks 4.5 software on a UVP Bioimaging System (Upland, Calif.). Quantification of results was performed by densitometry and the results analyzed as total integrated densitometric values (arbitrary units).

LXRβ [2] = biological target: T1, LXRβ; experiment: ChIP, LXRβ binding to the LXRE in the α-synuclein promoter; assay type: cell-based; set-up: endogenous in cells; host or cells: SH-SY5Y human neuroblastoma cells; conditions: SH-SY5Y
Method: as §1
ChIP analysis was performed to evaluate the extent of ERα/ERβ and LXRα/LXRβ binding to the DNA elements in the TH promoter and α-synuclein promoter regions respectively using “SimpleChIP™ Enzymatic Chromatic IP kit” from Cell Signaling (Boston, Mass.).
Briefly, cells from each treatment group (3×10^6 cells) were washed with PBS, trypsinized, centrifuged at 5000 g. The pellet containing the cells was further washed with PBS and cross-linked using 37% formaldehyde for 15 min followed by the addition of glycine solution to cease the cross-linking reaction.
The cells were washed with 4× volumes of 1×PBS and centrifuged at ˜220 g for 5 min. The pellet was resuspended and incubated for 10 min in 5 ml of tissue lysis buffer containing DTT and protease and phosphatase inhibitors. The subsequent steps to isolate the cross-linked chromatin were performed according to the manufacturer's protocol.
The cross-linked chromatin from each sample was apportioned into four equal parts. One quarter of the cross-linked chromatin was set aside as “input.” One quarter of the cross-linked chromatin from each sample was incubated with 5 μg of anti-ERα mouse antibody (Cell Signaling, Boston, Mass.) and 5 μg of anti-ERβ rabbit antibody (Upstate, Bedford, Mass.), or 5 μg of anti-LXRα rabbit antibody (Abcam, Cambridge, Mass.) and 5 μg of anti-LXRβ mouse antibody (Abcam, Cambridge, Mass.), while the remaining one quarter of the cross-linked chromatin from each sample was incubated with 5 μg of normal Rabbit IgG to serve as negative control.
The cross-linked chromatin samples were incubated overnight at 4° C. with their respective antibodies. The DNA-protein complexes were collected with Protein G agarose beads and washed to remove non-specific antibody binding. The DNA from the DNA-protein complexes from all the samples including the input and negative control was reverse cross-linked by incubation with 2 μL of Proteinase K for 2 hours at 65° C.
The crude DNA extract was eluted and then washed several times with wash buffer containing ethanol (provided with the kit) followed by purification with the use of DNA spin columns provided by the manufacturer. The pure DNA was eluted out of the DNA spin columns using 50 μL of the DNA elution buffer provided in the kit. 1 μL of the purified DNA was used for DNA concentration analysis using the “Quant-iT™ dsDNA Assay kit” from Invitrogen (Carlsbad, Calif.). The DNA fragment size was determined by electrophoresis on a 1.2% agarose FlashGel^R system (Lonza, Rockland, Me.).
The relative abundance of the ERα or ERβ antibody precipitated chromatin containing the ERE in the TH promoter region and LXRα or LXRβ antibody precipitated chromatin containing the LXRE in the α-synuclein promoter region was determined by qPCR using an iQ SYBR Green Supermix kit following the manufacturer's instructions (BioRad, Hercules, Calif.) and sequence specific primers (See Table 1 above). […] The fold enrichment of the ERE in the TH promoter region and LXRE in the α-synuclein promoter region was calculated using the ΔΔCt method (K. J. Livak et al., Methods, 25, 402 (2001)) which normalizes ChIP Ct values of each sample to the % input and background.

Row | SMILES | LXRβ protein levels in the nucleus (LXRβ [1]) | 27-OHC-induced increase in LXRβ in the nucleus (LXRβ [1]; co-treatment with 10 μM 27-OHC) | 27-OHC-induced increase in LXRβ binding to the LXRE (LXRβ [2]; co-treatment with 27-OHC) | decrease in LXRβ binding to the LXRE on the α-synuclein promoter (LXRβ [2]; treatment alone vs control) [fold] | increase of LXRβ binding to the LXRE in the α-synuclein promoter (LXRβ [2]; treatment alone vs control) [fold] | increase of LXRβ binding to the LXRE on the α-synuclein promoter (LXRβ [2]; in combination with 27-OHC) [fold]
1 | CC(C)CCC[C@@H](C)[C@H]1CC[C@H]2[C@@H]3C[C@@H]4O[C@@]45C[C@@H](OS(=O)(=O)O)CC[C@]5(C)[C@H]3CC[C@]12C [ECHS, 5α,6α-epoxycholesterol-3-sulfate] | reduced | significantly attenuated | significantly reversed | ~2.8 |  | 
2 | C[C@@H](CO)CCC[C@@H](C)[C@H]1CC[C@H]2[C@@H]3CC=C4C[C@@H](O)CC[C@]4(C)[C@H]3CC[C@]12C [27-OHC, 27-hydroxycholesterol] | increases |  |  |  | ~3 | 
3 | Cl.O=C(O)Cc1cccc(OCCCN(Cc2cccc(C(F)(F)F)c2Cl)CC(c2ccccc2)c2ccccc2)c1 [GW3965, 3-[3-[N-(2-Chloro-3-trifluoromethylbenzyl)-(2,2-diphenylethyl)amino]propyloxy]phenylacetic acid hydrochloride] | more pronounced increase |  |  |  | 3.5 | 4
